Experimental data from PubChem BioAssay (NCI).
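Five compound concentrations were applied to cells in 96-well plates for 48 hours; endpoints were derived by simple linear interpolation of the resulting dose-response curve. TGI: concentration producing complete growth inhibition.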

Key:
Assay in all cases: growth of human tumour cells (NCI), 48 h
[1] = tested on: NCI-H226 lung
[2] = tested on: NCI-H522 lung
[3] = tested on: K-562 leukemia
[4] = tested on: HCT-116 colon
[5] = tested on: RXF 393 renal
[6] = tested on: MDA-N
[7] = tested on: CAKI-1 renal
[8] = tested on: MDA-MB-231 breast
[9] = tested on: HS 578T breast
[10] = tested on: SNB-19 CNS
[11] = tested on: HCC-2998 colon
[12] = tested on: U251 CNS
[13] = tested on: OVCAR-4 ovarian
[14] = tested on: SF-295 CNS
[15] = tested on: NCI-H460 lung
[16] = tested on: HOP-92 NSCLC
[17] = tested on: MDA-MB-435
[18] = tested on: M14 melanoma
[19] = tested on: CCRF-CEM leukemia
[20] = tested on: MALME-3M melanoma
[21] = tested on: COLO 205 colon
[22] = tested on: UO-31 renal
[23] = tested on: OVCAR-8 ovarian
[24] = tested on: UACC-257 melanoma
[25] = tested on: SK-OV-3 ovarian
[26] = tested on: UACC-62 melanoma
[27] = tested on: HOP-62 NSCLC
[28] = tested on: SN12C renal
[29] = tested on: SF-539 CNS
[30] = tested on: SK-MEL-2 melanoma
[31] = tested on: TK-10 renal
[32] = tested on: NCI/ADR-RES ovarian
[33] = tested on: OVCAR-5 ovarian
[34] = tested on: HT29 colon
[35] = tested on: ACHN renal
[36] = tested on: BT-549 breast
[37] = tested on: NCI-H23 lung
[38] = tested on: DU-145 prostate
[39] = tested on: SR leukemia
[40] = tested on: SF-268 CNS
[41] = tested on: SW-620 colon
[42] = tested on: SK-MEL-28 melanoma
[43] = tested on: SK-MEL-5 melanoma
[44] = tested on: SNB-75 CNS
[45] = tested on: HCT-15 colon
[46] = tested on: PC-3 prostate
[47] = tested on: OVCAR-3 ovarian
[48] = tested on: A549 NSCLC
[49] = tested on: HL-60(TB) leukemia
[50] = tested on: IGROV1 ovarian
[51] = tested on: MCF7 breast
[52] = tested on: LOX IMVI melanoma
[53] = tested on: 786-0 renal
[54] = tested on: A498 renal
[55] = tested on: MOLT-4 leukemia
[56] = tested on: T-47D breast
[57] = tested on: KM12 colon
[58] = tested on: EKVX NSCLC
[59] = tested on: RPMI-8226 leukemia

For `N=C(N)n1[nH]c2c(c1=O)CCC2`, the TGI [1] was greater than 100 µM, the TGI [2] was greater than 100 µM and the TGI [3] was greater than 100 µM. It also gave a TGI [4] greater than 100 µM, a TGI [5] greater than 100 µM and a TGI [6] greater than 100 µM. The TGI [7] was greater than 100 µM, the TGI [8] was greater than 100 µM and the TGI [9] was greater than 100 µM. For the same molecule, the TGI [10] was greater than 100 µM, the TGI [11] was greater than 100 µM and the TGI [12] was greater than 100 µM. The TGI [13] was greater than 100 µM, the TGI [14] was greater than 100 µM and the TGI [15] was greater than 100 µM. For the same molecule, the TGI [16] was greater than 100 µM, the TGI [17] was greater than 100 µM and the TGI [18] was greater than 100 µM. It also gave a TGI [19] greater than 100 µM, a TGI [20] greater than 100 µM and a TGI [21] greater than 100 µM. It also gave a TGI [22] greater than 100 µM, a TGI [23] greater than 100 µM and a TGI [24] greater than 100 µM. The TGI [25] was greater than 100 µM, the TGI [26] was greater than 100 µM and the TGI [27] was greater than 100 µM. The TGI [28] was greater than 100 µM, the TGI [29] was greater than 100 µM and the TGI [30] was greater than 100 µM. It also gave a TGI [31] greater than 100 µM, a TGI [32] greater than 100 µM and a TGI [33] greater than 100 µM. The TGI [34] was greater than 100 µM, the TGI [35] was greater than 100 µM and the TGI [36] was greater than 100 µM. For the same molecule, the TGI [37] was greater than 100 µM, the TGI [38] was greater than 100 µM and the TGI [39] was greater than 100 µM. For the same molecule, the TGI [40] was greater than 100 µM, the TGI [41] was greater than 100 µM and the TGI [42] was greater than 100 µM. For the same molecule, the TGI [43] was greater than 100 µM, the TGI [44] was greater than 100 µM and the TGI [45] was greater than 100 µM. The TGI [46] was greater than 100 µM, the TGI [47] was greater than 100 µM and the TGI [48] was greater than 100 µM. For the same molecule, the TGI [49] was greater than 100 µM, the TGI [50] was greater than 100 µM and the TGI [51] was greater than 100 µM. It also gave a TGI [52] greater than 100 µM and a TGI [53] greater than 100 µM.

Work on `C[C@H](CC[C@@H](O)C(C)(C)O)[C@H]1CC[C@@]2(C)[C@@H]3CC=C4[C@@H](CC[C@H](OC5OC(CO)C(O)C(O)C5O)C4(C)C)[C@]3(C)C(=O)C[C@]12C` (some centres not stated) yielded a TGI [1] greater than 100 µM, a TGI [2] greater than 100 µM and a TGI [3] greater than 100 µM. It also gave a TGI [4] greater than 100 µM, a TGI [5] greater than 100 µM and a TGI [6] greater than 100 µM. The TGI [7] was greater than 100 µM, the TGI [8] was greater than 100 µM and the TGI [9] was greater than 100 µM. The TGI [10] was greater than 100 µM, the TGI [11] was greater than 100 µM and the TGI [12] was greater than 100 µM. It also gave a TGI [13] greater than 100 µM, a TGI [14] greater than 100 µM and a TGI [15] greater than 100 µM. It also gave a TGI [16] greater than 100 µM, a TGI [17] greater than 100 µM and a TGI [18] of 92.1 µM. The TGI [54] was greater than 100 µM, the TGI [19] was 70.9 µM and the TGI [20] was greater than 100 µM. The TGI [21] was greater than 100 µM, the TGI [22] was greater than 100 µM and the TGI [23] was greater than 100 µM. For the same molecule, the TGI [24] was greater than 100 µM, the TGI [25] was greater than 100 µM and the TGI [26] was greater than 100 µM. For the same molecule, the TGI [27] was greater than 100 µM, the TGI [28] was greater than 100 µM and the TGI [29] was greater than 100 µM. It also gave a TGI [30] of 69.6 µM, a TGI [31] greater than 100 µM and a TGI [32] greater than 100 µM. The TGI [33] was greater than 100 µM, the TGI [34] was greater than 100 µM and the TGI [35] was 98.5 µM. The TGI [36] was greater than 100 µM, the TGI [37] was greater than 100 µM and the TGI [38] was greater than 100 µM. For the same molecule, the TGI [55] was greater than 100 µM, the TGI [40] was greater than 100 µM and the TGI [41] was greater than 100 µM. The TGI [56] was greater than 100 µM, the TGI [42] was 77.8 µM and the TGI [43] was greater than 100 µM. For the same molecule, the TGI [44] was greater than 100 µM, the TGI [57] was greater than 100 µM and the TGI [45] was greater than 100 µM. It also gave a TGI [46] greater than 100 µM, a TGI [47] greater than 100 µM and a TGI [48] greater than 100 µM. It also gave a TGI [58] greater than 100 µM, a TGI [49] of 75.8 µM and a TGI [50] of 44.3 µM. For the same molecule, the TGI [51] was greater than 100 µM, the TGI [52] was greater than 100 µM and the TGI [53] was 70.5 µM.

`CC(=O)Oc1ccc(OC(Oc2ccccc2)c2ccccc2)cc1` (configuration not stated) was tested, and the TGI [1] was 69.7 µM, the TGI [2] was 96.4 µM and the TGI [3] was greater than 100 µM. It also gave a TGI [4] of 59 µM, a TGI [5] of 57.1 µM and a TGI [6] of 42.2 µM. It also gave a TGI [7] of 55.7 µM, a TGI [8] of 48.8 µM and a TGI [10] of 77.5 µM. It also gave a TGI [11] of 39.7 µM, a TGI [12] of 35.5 µM and a TGI [13] greater than 100 µM. For the same molecule, the TGI [14] was greater than 100 µM, the TGI [15] was 49.3 µM and the TGI [16] was 34.9 µM. The TGI [17] was 94.3 µM, the TGI [18] was 32.1 µM and the TGI [54] was 43.5 µM. The TGI [19] was 72.2 µM, the TGI [20] was 52.9 µM and the TGI [21] was greater than 100 µM. For the same molecule, the TGI [22] was 88.9 µM, the TGI [23] was greater than 100 µM and the TGI [24] was 64.5 µM. It also gave a TGI [25] greater than 100 µM, a TGI [26] of 44.6 µM and a TGI [27] greater than 100 µM. For the same molecule, the TGI [28] was 29.2 µM, the TGI [29] was 49.8 µM and the TGI [31] was greater than 100 µM. The TGI [32] was 90.3 µM, the TGI [33] was greater than 100 µM and the TGI [34] was 87 µM. For the same molecule, the TGI [35] was 72.1 µM, the TGI [36] was 68 µM and the TGI [37] was 47.6 µM. It also gave a TGI [38] greater than 100 µM, a TGI [55] greater than 100 µM and a TGI [39] of 54.5 µM. The TGI [40] was greater than 100 µM, the TGI [41] was greater than 100 µM and the TGI [56] was greater than 100 µM. The TGI [42] was 69 µM, the TGI [44] was 64.4 µM and the TGI [57] was 58.7 µM. It also gave a TGI [45] greater than 100 µM, a TGI [46] greater than 100 µM and a TGI [47] of 49.5 µM. For the same molecule, the TGI [48] was greater than 100 µM, the TGI [58] was greater than 100 µM and the TGI [49] was 41.8 µM. The TGI [50] was greater than 100 µM, the TGI [51] was 82.2 µM and the TGI [52] was 52.6 µM. The TGI [53] was 57.8 µM.

`Cc1cc(S(=O)(=O)O)ccc1N=Nc1ccc(N=Nc2c(O)ccc3ccccc23)c(C)c1` showed a TGI [1] greater than 100 µM, a TGI [2] of 68.5 µM and a TGI [3] greater than 100 µM. It also gave a TGI [4] greater than 100 µM, a TGI [5] greater than 100 µM and a TGI [6] greater than 100 µM. For the same molecule, the TGI [7] was greater than 100 µM, the TGI [8] was greater than 100 µM and the TGI [9] was greater than 100 µM. The TGI [10] was greater than 100 µM, the TGI [12] was greater than 100 µM and the TGI [13] was greater than 100 µM. It also gave a TGI [14] greater than 100 µM, a TGI [16] greater than 100 µM and a TGI [17] greater than 100 µM. It also gave a TGI [18] greater than 100 µM, a TGI [19] of 60.8 µM and a TGI [20] greater than 100 µM. For the same molecule, the TGI [21] was greater than 100 µM, the TGI [22] was greater than 100 µM and the TGI [23] was greater than 100 µM. The TGI [24] was greater than 100 µM, the TGI [59] was greater than 100 µM and the TGI [25] was greater than 100 µM. It also gave a TGI [26] greater than 100 µM, a TGI [27] greater than 100 µM and a TGI [28] greater than 100 µM. It also gave a TGI [30] greater than 100 µM, a TGI [31] greater than 100 µM and a TGI [32] greater than 100 µM. The TGI [33] was greater than 100 µM, the TGI [34] was greater than 100 µM and the TGI [35] was greater than 100 µM. It also gave a TGI [36] greater than 100 µM, a TGI [37] greater than 100 µM and a TGI [38] greater than 100 µM. The TGI [55] was greater than 100 µM, the TGI [40] was greater than 100 µM and the TGI [41] was greater than 100 µM. The TGI [56] was greater than 100 µM, the TGI [42] was greater than 100 µM and the TGI [43] was greater than 100 µM. The TGI [44] was greater than 100 µM, the TGI [57] was 83.3 µM and the TGI [45] was greater than 100 µM. For the same molecule, the TGI [46] was greater than 100 µM, the TGI [47] was greater than 100 µM and the TGI [48] was greater than 100 µM. The TGI [58] was greater than 100 µM, the TGI [50] was greater than 100 µM and the TGI [52] was greater than 100 µM. It also gave a TGI [53] of 61.3 µM.
